# According to the supplement of paper PMC13380429:
# Assays:
# Conditions in all cases: 72 h
# [1] = tested on: HepG2; assay: drug sensitivity score (DSS) for viability; higher = more toxic; extreme values may be limits of the assay
# [2] = tested on: Caco-2; assay: as above
# [3] = tested on: U2OS; assay: as above
# [4] = tested on: Calu-3; assay: as above
# [5] = tested on: Vero E6; assay: as above
# [6] = tested on: HepG2; assay: cell viability relative to DMSO; higher = less toxic
# [7] = tested on: Caco-2; assay: as above
# [8] = tested on: U2OS; assay: as above
# [9] = tested on: Calu-3; assay: as above
# [10] = tested on: Vero E6; assay: as above
# [11] = tested on: HepG2; assay: relative viability EC50 (midpoint between 100% and the lowest measured viability); higher = less toxic
# [12] = tested on: Caco-2; assay: as above
# [13] = tested on: U2OS; assay: as above
# [14] = tested on: Calu-3; assay: as above
# [15] = tested on: Vero E6; assay: as above
Structure (SMILES),drug sensitivity score [1],drug sensitivity score [2],drug sensitivity score [3],drug sensitivity score [4],drug sensitivity score [5],cell viability ([6]; 1 nM),cell viability ([6]; 10 nM),cell viability ([6]; 100 nM),cell viability ([6]; 1000 nM),cell viability ([6]; 10000 nM),cell viability ([7]; 1 nM),cell viability ([7]; 10 nM),cell viability ([7]; 100 nM),cell viability ([7]; 1000 nM),cell viability ([7]; 10000 nM),cell viability ([8]; 1 nM),cell viability ([8]; 10 nM),cell viability ([8]; 100 nM),cell viability ([8]; 1000 nM),cell viability ([8]; 10000 nM),cell viability ([9]; 1 nM),cell viability ([9]; 10 nM),cell viability ([9]; 100 nM),cell viability ([9]; 1000 nM),cell viability ([9]; 10000 nM),cell viability ([10]; 1 nM),cell viability ([10]; 10 nM),cell viability ([10]; 100 nM),cell viability ([10]; 1000 nM),cell viability ([10]; 10000 nM),relative viability EC50 [11],relative viability EC50 [12],relative viability EC50 [13],relative viability EC50 [14],relative viability EC50 [15]
C#CCN1C(C)=C(C(=O)OC)C(c2cccc([N+](=O)[O-])c2)C(C(=O)OCC)=C1C (stereo not given) [MRS-1845],0,0.3,0,0,0,95.2%,105%,91.3%,106%,95.7%,92%,98.1%,96.9%,88.6%,85.4%,107%,97.8%,105%,100%,97.2%,99.5%,91.3%,95.6%,98.3%,90.6%,94.1%,99.6%,98%,99.3%,99%,> 10 µM,> 10 µM,> 10 µM,> 10 µM,> 10 µM
CC(=O)NCC(=O)N[C@H](CCC(=O)O)C(=O)O [N-acetylglycyl-D-glutamic-acid],0,0,0,0,0,110%,95.7%,98.6%,102%,100%,91.3%,104%,93%,103%,101%,102%,102%,97.7%,102%,99.4%,94.5%,106%,98%,93%,95.7%,109%,99.9%,103%,97%,99.6%,> 10 µM,> 10 µM,> 10 µM,> 10 µM,> 10 µM
c1ccc2sc(SN3CCOCC3)nc2c1 [N-oxydiethylenebenzothiazole-2-sulfenamide],0,0,0,0,0,101%,97.1%,98.9%,115%,111%,86.7%,92.6%,92.5%,92.5%,93.8%,96.9%,105%,94.1%,99.1%,102%,104%,101%,97.4%,83.3%,110%,97%,94.5%,99.6%,104%,112%,> 10 µM,> 10 µM,> 10 µM,> 10 µM,> 10 µM
CC1(C)Oc2ccc(C#N)cc2[C@@H](OC2=CC(=O)CC2)[C@@H]1O [PCO-400],0,0,0,0,0,101%,97%,109%,105%,86.9%,113%,90.5%,99.6%,92.8%,103%,107%,95.8%,98.8%,90.6%,99.8%,96.6%,95.9%,110%,102%,103%,102%,97.3%,97.7%,102%,94.6%,> 10 µM,> 10 µM,> 10 µM,> 10 µM,> 10 µM
CCCC(=O)C1CCN(c2ncnc3c2CN(C(=O)c2ccc(-c4ccccc4)cc2)CC3)CC1 [PK-THPP],0,0.9,0,0,0,98.9%,99.1%,91.2%,94.9%,93.6%,105%,99.8%,100%,100%,75.3%,106%,98.9%,103%,97%,95.6%,106%,101%,98.9%,105%,101%,102%,105%,99.7%,104%,98.3%,> 10 µM,> 10 µM,> 10 µM,> 10 µM,> 10 µM
O=C(OCCN1CCOCC1)C1(c2ccccc2)CCCCC1 [PRE-084],0,0.4,0,0,0,106%,102%,95.6%,108%,100%,108%,102%,93.9%,90.8%,89.1%,99.3%,100%,96.5%,107%,97.4%,101%,107%,97.2%,103%,93%,100%,99.7%,106%,102%,105%,> 10 µM,> 10 µM,> 10 µM,> 10 µM,> 10 µM
Cc1cc(OCCCS(C)(=O)=O)cc(C)c1-c1cccc(COc2ccc3c(c2)OC[C@H]3CC(=O)O)c1 [TAK-875],0,2.5,0,0,0,93.8%,97.3%,95.9%,94.4%,96.7%,99.8%,101%,89.3%,85.4%,77.8%,95.6%,98.7%,96.9%,96.7%,94.3%,98.2%,105%,99.8%,111%,102%,100%,106%,97.3%,98.7%,96.3%,> 10 µM,> 10 µM,> 10 µM,> 10 µM,> 10 µM
CN1C/C=C/CCOc2cccc(c2)-c2ccnc(n2)Nc2cccc(c2)C1 [TG-02],19.3,16.2,20,12.4,17.1,111%,104%,79.2%,9.1%,3.2%,89.8%,88.2%,70.4%,28.4%,38.9%,102%,101%,86%,2.5%,1.8%,97.1%,97.7%,87.7%,43.4%,51.8%,99.4%,97.8%,90%,13.6%,5.6%,0.207 µM,0.105 µM,0.204 µM,0.167 µM,0.297 µM
O.O=[Si]=O.O=[Si]=O.O=[Si]=O.O=[Si]=O.[O]=[Mg].[O]=[Mg].[O]=[Mg] [Talc],0,0,0,0.2,0,106%,95.1%,106%,95.4%,96.7%,97.2%,102%,94.7%,101%,90%,96.7%,98.3%,95.9%,100%,95.3%,87%,98.1%,89.8%,107%,81.3%,95.7%,104%,103%,97%,103%,> 10 µM,> 10 µM,> 10 µM,> 10 µM,> 10 µM
CS(=O)(=O)c1ccc(-c2cnc(N)c(C(=O)Nc3ccccc3)n2)cc1 [VE-821],0.4,0,0,0,0,97.3%,99.3%,95%,98.6%,84.2%,102%,94.8%,101%,95.1%,97.4%,102%,95.7%,96.9%,93.1%,91.6%,99.1%,94.7%,102%,95.1%,95.3%,99.1%,95.7%,97.1%,98%,94%,> 10 µM,> 10 µM,> 10 µM,> 10 µM,> 10 µM
CCOc1cc(C(=O)N2CCC(N3CCN(C)CC3)CC2)ccc1Nc1ncc2c(n1)N(C1CCCC1)c1ccccc1C(=O)N2C [XMD17-109],7.2,6.5,5.7,5.5,9.5,101%,105%,94.2%,76.9%,25.2%,96.1%,104%,99%,81.6%,32%,99.6%,95.6%,101%,89.5%,28.4%,104%,87.2%,99%,99%,4.4%,94.3%,97.1%,94.4%,62.1%,8.8%,1.45 µM,1.48 µM,2.01 µM,3.09 µM,1.21 µM
Cn1c(=O)c2c(ncn2CC(=O)O)n(C)c1=O [acefylline],0,0,0,0,0.1,93%,98.8%,102%,95.1%,108%,102%,98%,114%,110%,105%,98.7%,97%,96.8%,95.5%,97.8%,104%,101%,114%,93.8%,102%,104%,105%,107%,105%,86.5%,> 10 µM,> 10 µM,> 10 µM,> 10 µM,> 10 µM
CC(=O)N[C@@H](CCC(N)=O)C(=O)O [aceglutamide],0,3.5,0,0,0.3,90.7%,89.7%,104%,92.5%,86.4%,95.5%,103%,84.5%,82.4%,83%,106%,103%,99.2%,98.8%,98.5%,101%,89.8%,101%,110%,103%,98.3%,104%,99.8%,99.9%,83.7%,> 10 µM,> 10 µM,> 10 µM,> 10 µM,> 10 µM
CC(=O)NO [acetohydroxamic-acid],0,0,0,0,0,99.6%,101%,95.9%,96.2%,97.3%,96.3%,97.6%,94.9%,95.5%,112%,106%,102%,97.7%,98.7%,99.8%,104%,98.8%,112%,92.6%,96.9%,97.6%,97.2%,102%,101%,97.6%,> 10 µM,> 10 µM,> 10 µM,> 10 µM,> 10 µM
